Consider 26 compounds from US20050234041A1, “Substituted 1-benzazepines and derivatives thereof” (priority 2001, published 2005).

The test system of one test is Campylobacter jejuni. Put plainly: MIC, broth dilution method, Campylobacter jejuni. Type of test: cell-based. Conditions: for MIC: Campylobacter jejuni. The source says: (§1) Antibacterial activity can be determined by several standard methods well known by those skilled in the art, including disc diffusions methods, broth dilution minimal inhibitory concentration (MIC) methods, etc., including the detailed method outlined below and as defined by the National Committee of Clinical Laboratory Standards in the United States.
(§2) MIC, Broth Dilution Method
(§3) Cultures of bacteria are initially brought up from the freezer stocks onto chocolate agar plates by streaking a loop-full, then incubated for 18 hours at 35-37° C. in a 5% CO2 incubator.
(§4) Five to 10 colonies are picked from the chocolate agar plate for subculture to Brain-Heart Infusion (BHI) broth or Mueller Hinton broth or BHI containing 4% serum and incubated as described.
(§5) Evaluate the optical density of the organisms in the wells of a 96 well microtiter plate with and without the test compound. The optical density of the organisms in the presence of an active compound will be less than the optical density of the same organism untreated. The activity of the compounds is described as either negative or the lowest concentration inhibiting growth. The results are depicted in Table III, where +/− represents the least activity and ++++ represents the greatest activity. In Table IV, the results are depicted where MIC represents the lowest concentration of antibiotic that inhibits bacterial growth.

The subject of a further test is Helicobacter pylori. Put plainly: MIC, broth dilution method, Helicobacter pylori. Type of test: cell-based. Conditions: for MIC: Helicobacter pylori.
Source text: as §1, §2, §3, §4, §5

[1] abbreviates: Table IV, MIC, lowest concentration that inhibits bacterial growth, read-out: Antibacterial Activity (micrograms/ml) Campylobacter jejuni.
[2] abbreviates: Table IV, MIC, lowest concentration that inhibits bacterial growth, read-out: Antibacterial Activity (micrograms/ml) Helicobacter pylori.
Where [3] appears, read: Table IV, MIC, lowest concentration that inhibits bacterial growth.
[4] abbreviates: Table V, read-out: MIC (μg/mL) C. jejuni.
Where [5] appears, read: Table V, read-out: MIC (μg/mL) H. pylori.

The structures appear in SMILES notation. Converted amounts (≈) assume the structure as drawn. Where two headings read alike, the source gives them in different places.

With `CCOC(=O)C1CCc2ccc(OC)cc2N(CC)C1=O` (racemic) [Example 4, 3(R,S)-Ethoxycarbonyl-1-ethyl-8-methoxy-2,3,4,5-tetrahydro-1H-1-benzazepine-2-one], the figures for the MIC with Campylobacter jejuni (setting [1]) and in the test with Helicobacter pylori (setting [2]) were 50 µg/mL (≈ 172 µM) and 125 to 250 µg/mL (≈ 429 to 858 µM), respectively.
In the case of `CCOC(=O)C1(CC)CCc2ccc(OC)cc2N(CC)C1=O` (racemic) [Example 6, 1,3-Diethyl-3(R,S)-ethoxycarbonyl-8-methoxy-2,3,4,5-tetrahydro-1H-1-benzazepine-2-one], the MIC with Campylobacter jejuni (setting [1]) came to 50 µg/mL (≈ 157 µM); with Helicobacter pylori (setting [2]) it was 12.5 µg/mL (≈ 39.1 µM).
On the same counts, the results for `CCN1C(=O)C(CC)(C(=O)O)CCc2ccc(OC)cc21` (racemic) [Example 7, 3(R,S)-Carboxyl-1,3-diethyl-8-methoxy-2,3,4,5-tetrahydro-1H-1-benzazepine-2-one] are more than 200 µg/mL and 100 µg/mL (≈ 343 µM).
In the case of `CCN1C(=O)C(C(=O)OC(C)(C)C)CCc2cc(N3CCN(C(=O)OC(C)(C)C)CC3)c(OC)cc21` (racemic) [Example 14, 3(R,S)-tert-Butoxycarbonyl-7-[(4-tert-butoxycarbonyl-piperazin)-1-yl]-1-ethyl-8-methoxy-2,3,4,5-tetrahydro-1H-1-benzazepine-2-one], the “Antibacterial Activity (micrograms/ml) Campylobacter jejuni” value with Campylobacter jejuni (setting [3]) was more than 200 micrograms/ml. In the test on Helicobacter pylori (setting [3]), the “Antibacterial Activity (micrograms/ml) Helicobacter pylori” value is on record as 50 micrograms/ml.
Regarding `COc1ccc2c(c1)N(Cc1cccc(F)c1)C(=O)C(C(=O)OC(C)(C)C)CC2` (racemic) [Example 25, 3(R,S)-tert-Butoxycarbonyl-1-(3-fluorobenzyl)-8-methoxy-2,3,4,5-tetrahydro-1H-1-benzazepine-2-one], the MIC in the test with Campylobacter jejuni (setting [1]) is more than 200 µg/mL; with Helicobacter pylori (setting [2]), 12.5 µg/mL (≈ 31.3 µM).
Regarding `CCN1C(=O)C(C(=O)OC(C)(C)C)CCc2cc(N3CCN(C(=O)OCc4ccccc4)CC3)c(OC)cc21` (racemic) [Example 26, 7-[(4-benzyloxycarbonyl)-piperazin-1-yl]-3(R,S)-tert-butoxycarbonyl-1-ethyl-8-methoxy-2,3,4,5-tetrahydro-1H-1-benzazepine-2-one], in the test on Campylobacter jejuni (setting [3]), the “Antibacterial Activity (micrograms/ml) Campylobacter jejuni” value was 125 micrograms/ml. In the test on Helicobacter pylori (setting [3]), the “Antibacterial Activity (micrograms/ml) Helicobacter pylori” value is recorded as 12.5 micrograms/ml.
Turning to `CCN1C(=O)C(Br)(C(=O)OC)CCc2cc(Br)c(OC)cc21` (racemic) [Example 27, 3,7-dibromo-1-ethyl-3(R,S)-methoxycarbonyl-8-methoxy-2,3,4,5-tetrahydro-1H-benzazepine-2-one], the MIC was more than 200 µg/mL in the test with Campylobacter jejuni (setting [1]) and 12.5 µg/mL (≈ 28.7 µM) with Helicobacter pylori (setting [2]).
For the compound `CCN1C(=O)C(C(=O)OC)CCc2cc(Br)c(OC)cc21` (racemic) [Example 28, 7-bromo-1-ethyl-3(R,S)-methoxycarbonyl-8-methoxy-2,3,4,5-tetrahydro-1H-1-benzazepine-2-one], the MIC is more than 200 µg/mL with Campylobacter jejuni (setting [1]) and 25 µg/mL (≈ 70.2 µM) in the test on Helicobacter pylori (setting [2]).
Turning to `CCN1C(=O)C(C(=O)OC(C)(C)C)CCc2ccc(O[Si](C)(C)C(C)(C)C)cc21` (racemic) [Example 179, 3(R,S)-tert-Butoxycarbonyl-8-tert-Butyldimethylsilyloxy-1-ethyl-2,3,4,5-tetrahydro-1H-1-benzazepine-2-one], the figures for the MIC in the test with Campylobacter jejuni (setting [4]) and in the test with Helicobacter pylori (setting [5]) were more than 200 µg/mL and 16 µg/mL (≈ 38.1 µM), respectively.
Take `CCOc1ccc2c(c1)N(CC)C(=O)C(C(=O)OC(C)(C)C)CC2` (racemic) [Example 180, 8-Ethoxy-3(R,S)-tert-butoxycarbonyl-1-ethyl-2,3,4,5-tetrahydro-1H-1-benzazepine-2-one]: the figures for the MIC in the test with Campylobacter jejuni (setting [4]) and in the test on Helicobacter pylori (setting [5]) were more than 200 µg/mL and 32 µg/mL (≈ 96 µM), respectively.
Consider `CC(C)(C)OC(=O)C1CCc2ccc(O)cc2N(C(=O)OC(C)(C)C)C1=O` (racemic) [Example 183, 1,3(R,S)-Di(tert-butoxycarbonyl)-8-hydroxy-2,3,4,5-tetrahydro-1H-1-benzazepine-2-one], for which the MIC in the test with Campylobacter jejuni (setting [4]) was determined as 125 µg/mL (≈ 331 µM); in the test with Helicobacter pylori (setting [5]), 64 µg/mL (≈ 170 µM).
Take `COc1ccc2c(c1)N(Cc1cccc(F)c1)C(=O)C(C(=O)O)CC2` (racemic) [Example 184, 3(R,S)-carboxyl-1-(3-fluorobenzyl)-8-methoxy-2,3,4,5-tetrahydro-1H-1-benzazepine-2-one]: the MIC with Campylobacter jejuni (setting [4]) is more than 250 µg/mL; in the test on Helicobacter pylori (setting [5]), 125 µg/mL (≈ 364 µM).
On the same counts, the results for `COc1ccc2c(c1)N(CC#N)C(=O)C(C(=O)OC(C)(C)C)CC2` (racemic) [Example 196, 3(R,S)-tert-Butoxycarbonyl-1-cyanomethyl-8-methoxy-2,3,4,5-tetrahydro-1H-1-benzazepine-2-one] are 30 µg/mL (≈ 90.8 µM) and 4 µg/mL (≈ 12.1 µM).
As to `COc1cc2c(cc1[N+](=O)[O-])CCC(C(=O)OC(C)(C)C)C(=O)N2` (racemic) [Example 198, 3(R,S)-tert-Butoxycarbonyl-8-methoxy-7-nitro-2,3,4,5-tetrahydro-1H-1-benzazepine-2-one], the results for the MIC in the test on Campylobacter jejuni (setting [4]) and in the test with Helicobacter pylori (setting [5]) were 60 µg/mL (≈ 178 µM) and 4 µg/mL (≈ 11.9 µM), respectively.
For the compound `COc1cc2c(cc1N)CCC(C(=O)OC(C)(C)C)C(=O)N2` (racemic) [Example 199, 7-Amino-3(R,S)-tert-butoxycarbonyl-8-methoxy-2,3,4,5-tetrahydro-1H-1-benzazepine-2-one], the MIC is more than 250 µg/mL with Campylobacter jejuni (setting [4]) and 125 µg/mL (≈ 408 µM) with Helicobacter pylori (setting [5]).
On to `COc1ccc2c(c1)N(CC(=O)OC(C)(C)C)C(=O)C(C(=O)OC(C)(C)C)CC2` (racemic) [Example 200, 1-(tert-Butoxycarbonyl)methyl-3(R,S)-tert-butoxycarbonyl-8-methoxy-2,3,4,5-tetrahydro-1H-1-benzazepine-2-one], for which the MIC is more than 250 µg/mL with Campylobacter jejuni (setting [4]) and 15 µg/mL (≈ 37 µM) in the test with Helicobacter pylori (setting [5]).
The matching figures for `COc1ccc2c(c1)N(CC(N)=O)C(=O)C(C(=O)OC(C)(C)C)CC2` (racemic) [Example 201, 1-(Aminocarbonyl)methyl-3(R,S)-tert-butyloxycarbonyl-8-methoxy-2,3,4,5-tetrahydro-1H-1-benzazepine-2-one]: more than 250 µg/mL and 60 µg/mL (≈ 172 µM).
As to `CCOC(=O)NC(=O)N(C(=O)NC(=O)OCC)c1cc2c(cc1OC)NC(=O)C(C(=O)OC(C)(C)C)CC2` (racemic) [Example 204, 3(R,S)-tert-Butoxycarbonyl-7-di(ethoxycabonylaminocarbonyl)amino-8-methoxy-2,3,4,5-tetrahydro-1H-1-benzazepine-2-one], the “MIC (μg/mL) C. jejuni” value against Campylobacter jejuni (Table V) was >250, μg/mL. In the test with Helicobacter pylori (Table V), the “MIC (μg/mL) H. pylori” value amounted to 60 µg/mL (≈ 112 µM).
In the case of `COc1ccc2c(c1)N(CCN1CCOCC1)C(=O)C(C(=O)OC(C)(C)C)CC2` (racemic) [Example 213, 3(R,S)-tert-Butoxycarboxyl-8-methoxy-1-[2-(4-morpholinyl)]ethyl-2,3,4,5-tetrahydro-1H-1-benzazepine-2-one], the “MIC (μg/mL) C. jejuni” value against Campylobacter jejuni (Table V) is >250, μg/mL. For the same compound, in the test on Helicobacter pylori (Table V), the “MIC (μg/mL) H. pylori” value turned out to be 125 µg/mL (≈ 309 µM).
Take `CCOC(=O)NC(=S)Nc1cc2c(cc1O)NC(=O)C(C(=O)OC(C)(C)C)CC2` (racemic) [Example 215, 3(R,S)-tert-Butoxycarbonyl-7-[(ethoxycarbonylamino)thiocarbonyl)]amino-8-hydroxyl-2,3,4,5-tetrahydro-H-1-benzazepine-2-one]: the “MIC (μg/mL) C. jejuni” value against Campylobacter jejuni (Table V) was >250, μg/mL. In the test with Helicobacter pylori (Table V), the “MIC (μg/mL) H. pylori” value worked out at 30 µg/mL (≈ 70.8 µM).
Take `COc1ccc2c(c1)N(CCOC1CCCCO1)C(=O)C(C(=O)OC(C)(C)C)CC2` (racemic) [Example 221, 3(R,S)-tert-Butoxycarbonyl-8-methoxy-1-[2-(tetrahydro-2H-pyran-2-yl)oxyethyl]-2,3,4,5-tetrahydro-1H-1-benzazepine-2-one]: the MIC was more than 250 µg/mL in the test on Campylobacter jejuni (setting [4]) and 15 µg/mL (≈ 35.8 µM) with Helicobacter pylori (setting [5]).
Take `COc1ccc2c(c1)N(CCO)C(=O)C(C(=O)OC(C)(C)C)CC2` (racemic) [Example 222, 3(R,S)-tert-Butoxycarbonyl-1-(2-hydroxy)ethyl-8-methoxy-2,3,4,5-tetrahydro-1H-1-benzazepine-2-one]: in the test on Campylobacter jejuni (Table V), the “MIC (μg/mL) C. jejuni” value is >250, μg/mL. Further, the “MIC (μg/mL) H. pylori” value in the test on Helicobacter pylori (Table V) turned out to be 60 µg/mL (≈ 179 µM).
As to `COc1ccc2c(c1)N(CCC1OCCO1)C(=O)C(C(=O)OC(C)(C)C)CC2` (racemic) [Example 223, 3(R,S)-tert-Butoxycarbonyl-8-methoxy-1-[2-(1,3-dioxolan-2-yl)ethyl]-2,3,4,5-tetrahydro-1H-1-benzazepine-2-one], the MIC in the test with Campylobacter jejuni (setting [4]) was more than 250 µg/mL; in the test on Helicobacter pylori (setting [5]), 60 µg/mL (≈ 153 µM).
As to `CCN1C(=O)CCCc2ccc(OC)cc21` [Example 8, 1-Ethyl-8-methoxy-2,3,4,5-tetrahydro-1H-1-benzazepine-2-one], the MIC in the test with Campylobacter jejuni (setting [1]) was 50 µg/mL (≈ 228 µM); in the test on Helicobacter pylori (setting [2]) it was more than 200 µg/mL.
Regarding `CCN1C(=O)C(C(=O)O)CCc2cc(N3CCN(c4cc5c(cc4OC)N(CC)C(=O)C(C(=O)O)CC5)CC3)c(OC)cc21` [Example 20, 1,4-Di-[(3(R,S)-carboxyl-1-ethyl-8-methoxy-2-oxo-2,3,4,5-tetrahydro-1H-1-benzazepine)-7-yl]-piperazine], the “Antibacterial Activity (micrograms/ml) Campylobacter jejuni” value with Campylobacter jejuni (setting [3]) is listed as more than 200 micrograms/ml. The “Antibacterial Activity (micrograms/ml) Helicobacter pylori” value in the test on Helicobacter pylori (setting [3]) was determined as 100 micrograms/ml.
The matching figures for `CCN1C(=O)CCCc2cc(N3CCN(C(=O)OC(C)(C)C)CC3)c(OC)cc21` [Example 21, 7-[(4-tert-butoxycarbonylpiperazin)-1-yl]-1-ethyl-8-methoxy-2,3,4,5-tetrahydro-1H-1-benzazepine-2-one]: more than 200 micrograms/ml and 12.5-25 micrograms/ml.
